Test systems include OVCAR-8 ovarian; CCRF-CEM leukemia; IGROV1 ovarian; NCI/ADR-RES ovarian; RXF 393 renal; SNB-19 CNS; MDA-MB-435; RPMI-8226 leukemia; SF-539 CNS; UACC-62 melanoma.
Holding throughout (experiment): NCI-60 cell line screen, 48 h

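In this assay, cells in 96-well plates receive the compound at five concentrations for 48 hours. Endpoints are linearly interpolated between the surrounding concentrations. GI50 marks 50% less growth. TGI denotes the concentration required for complete inhibition of growth.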

In the case of `O=c1oc2ccc(-n3c(=O)c4ccccc4c4ccccc4c3=O)cc2c2ccccc12`, the TGI in the test on OVCAR-8 ovarian, in the test on CCRF-CEM leukemia, in the test with IGROV1 ovarian, with NCI/ADR-RES ovarian, in the test on RXF 393 renal and in the test with SNB-19 CNS was greater than 100 µM throughout. The TGI in the test on MDA-MB-435, in the test with RPMI-8226 leukemia, in the test on SF-539 CNS and in the test on UACC-62 melanoma was greater than 100 µM throughout.
On to `COc1ccc(-c2nc(N3CCN(C(=O)C4CCCCC4)CC3)c3c4c(sc3n2)CCCC4)cc1`, for which the GI50 in the test with OVCAR-8 ovarian is 46.4 µM; in the test with CCRF-CEM leukemia it was greater than 100 µM; with IGROV1 ovarian, 41.2 µM; in the test with NCI/ADR-RES ovarian, greater than 100 µM; in the test on RXF 393 renal, 21.3 µM; in the test on SNB-19 CNS it was 25.7 µM. Also, the GI50 was greater than 100 µM in the test on MDA-MB-435, 22 µM with RPMI-8226 leukemia, 39.4 µM with SF-539 CNS and 40.8 µM in the test with UACC-62 melanoma. Also, the TGI in the test on OVCAR-8 ovarian was greater than 100 µM; in the test on CCRF-CEM leukemia, greater than 100 µM; in the test with IGROV1 ovarian, greater than 100 µM; in the test on NCI/ADR-RES ovarian, greater than 100 µM; in the test on RXF 393 renal, 53.4 µM; in the test on SNB-19 CNS, greater than 100 µM. For the same molecule, the TGI in the test with MDA-MB-435, in the test with RPMI-8226 leukemia, in the test with SF-539 CNS and in the test with UACC-62 melanoma was greater than 100 µM each time.
With `C[C@H](CCCNCCCNCCCN)[C@H]1CC[C@H]2[C@@H]3[C@H](OCCCN)C[C@H]4C[C@H](OCCCN)CC[C@]4(C)[C@H]3C[C@H](OCCCN)[C@]12C`, the GI50 was 2.27 µM in the test on OVCAR-8 ovarian; 3.82 µM in the test on CCRF-CEM leukemia; 0.421 µM with IGROV1 ovarian; 4.75 µM in the test with NCI/ADR-RES ovarian; 6.29 µM in the test with RXF 393 renal; 1.92 µM in the test on SNB-19 CNS. Moreover, the GI50 was 0.34 µM with MDA-MB-435, 0.418 µM in the test with RPMI-8226 leukemia, 0.98 µM in the test on SF-539 CNS and 0.871 µM in the test on UACC-62 melanoma. Also, the TGI in the test on OVCAR-8 ovarian was greater than 55.8 µM; in the test on CCRF-CEM leukemia, 31.1 µM; in the test on IGROV1 ovarian it was 8.86 µM; in the test with NCI/ADR-RES ovarian it was 69.3 µM; in the test with RXF 393 renal, 46.9 µM; in the test on SNB-19 CNS it was greater than 83.4 µM. Moreover, the TGI in the test with MDA-MB-435 is 1.14 µM; with RPMI-8226 leukemia, 1.54 µM; with SF-539 CNS it was 3.46 µM; with UACC-62 melanoma, 13.3 µM.
As for `Cc1cc(Oc2ccc3nc(COc4ccc(CC5SC(=O)NC5=O)cc4)n(C)c3c2)cc(C)c1N` (stereo not given), the GI50 is 31.2 µM in the test on OVCAR-8 ovarian; 30.9 µM with CCRF-CEM leukemia; greater than 64.3 µM in the test on IGROV1 ovarian; 32.5 µM with NCI/ADR-RES ovarian; 50.8 µM in the test with RXF 393 renal; 42.2 µM with SNB-19 CNS. The GI50 with MDA-MB-435 is 27.4 µM; in the test with RPMI-8226 leukemia, 9.73 µM; with SF-539 CNS, 43.3 µM; with UACC-62 melanoma, 22.5 µM. The TGI was greater than 86.5 µM with OVCAR-8 ovarian; greater than 100 µM in the test with CCRF-CEM leukemia; greater than 100 µM in the test on IGROV1 ovarian; greater than 100 µM in the test with NCI/ADR-RES ovarian; greater than 100 µM with RXF 393 renal; greater than 100 µM with SNB-19 CNS. Also, the TGI with MDA-MB-435 was greater than 100 µM; in the test on RPMI-8226 leukemia it was 45.4 µM; in the test on SF-539 CNS it was greater than 83.4 µM; with UACC-62 melanoma, 72.4 µM.
Take `O=S(=O)(Nc1cc(Cl)ccc1Cl)c1ccc(-c2cnc(C3CC3)o2)cc1`: the GI50 in the test on OVCAR-8 ovarian is 3.95 µM; in the test on CCRF-CEM leukemia it was 0.592 µM; in the test on IGROV1 ovarian it was 0.673 µM; with NCI/ADR-RES ovarian it was 1.22 µM; in the test with RXF 393 renal it was 1.06 µM; with SNB-19 CNS, 1.51 µM. In addition, the GI50 with MDA-MB-435 was 0.346 µM; in the test with RPMI-8226 leukemia it was 2.44 µM; in the test with SF-539 CNS, 1.24 µM; in the test with UACC-62 melanoma it was 0.399 µM. The TGI was greater than 100 µM in the test on OVCAR-8 ovarian; greater than 100 µM in the test on CCRF-CEM leukemia; greater than 100 µM with IGROV1 ovarian; 82.6 µM in the test on NCI/ADR-RES ovarian; 6.65 µM in the test with RXF 393 renal; greater than 100 µM in the test with SNB-19 CNS. In addition, the TGI in the test on MDA-MB-435 is 1.49 µM; with RPMI-8226 leukemia it was greater than 100 µM; in the test with SF-539 CNS it was 10.2 µM; in the test on UACC-62 melanoma it was 23.9 µM.
In the case of `COC(=O)/C=C/c1cn(C(C)=O)c2ccc(Br)cc12`, the GI50 in the test with OVCAR-8 ovarian was 38.5 µM; in the test with CCRF-CEM leukemia, 1.44 µM; in the test with IGROV1 ovarian, 19.1 µM; in the test with NCI/ADR-RES ovarian it was 29.4 µM; in the test on RXF 393 renal, 26.9 µM; in the test with SNB-19 CNS, 37.2 µM. The GI50 was 29 µM in the test on MDA-MB-435, 19 µM in the test with RPMI-8226 leukemia, 29.9 µM in the test with SF-539 CNS and 30.7 µM in the test with UACC-62 melanoma. The TGI in the test with OVCAR-8 ovarian, in the test on CCRF-CEM leukemia, with IGROV1 ovarian, with NCI/ADR-RES ovarian, in the test with RXF 393 renal and in the test with SNB-19 CNS was greater than 100 µM throughout. In addition, the TGI in the test with MDA-MB-435, with RPMI-8226 leukemia, in the test on SF-539 CNS and in the test on UACC-62 melanoma was greater than 100 µM each time.
With `COC(=O)[C@H](Cc1ccc(O)cc1)NC(=O)[C@@H](OC)[C@@H]1Cc2cc3cc(OC4CC(OC5CC(O)C(O)C(C)O5)C(O)C(C)O4)c(C)c(O)c3c(O)c2C(=O)[C@H]1OC1CC(OC2CC(OC3CC(C)(O)C(O)C(C)O3)C(O)C(C)O2)C(O)C(C)O1` (stereo not given in full), the GI50 with OVCAR-8 ovarian was 0.166 µM; in the test with CCRF-CEM leukemia, 0.111 µM; with IGROV1 ovarian, 0.0357 µM; with NCI/ADR-RES ovarian, greater than 25 µM; with RXF 393 renal, 0.0544 µM; in the test on SNB-19 CNS, 0.0713 µM. For the same molecule, the GI50 with MDA-MB-435 is 0.0931 µM; in the test on RPMI-8226 leukemia, 0.0417 µM; in the test on SF-539 CNS, 0.0639 µM; in the test with UACC-62 melanoma it was 0.0223 µM. Also, the TGI in the test on OVCAR-8 ovarian is greater than 25 µM; in the test on CCRF-CEM leukemia, greater than 25 µM; in the test with IGROV1 ovarian it was greater than 25 µM; in the test on NCI/ADR-RES ovarian, greater than 25 µM; with RXF 393 renal, 0.292 µM; with SNB-19 CNS, greater than 25 µM. The TGI with MDA-MB-435 was determined as 2.33 µM; in the test on RPMI-8226 leukemia, 2.02 µM; in the test with SF-539 CNS, 1.97 µM; in the test on UACC-62 melanoma, 0.106 µM.
Consider `O=c1c2ccccc2c2ccccc2c(=O)n1Cc1ccc2c(c1)OCO2`, for which the TGI in the test with OVCAR-8 ovarian was greater than 100 µM; with CCRF-CEM leukemia, 93.2 µM; with IGROV1 ovarian, greater than 100 µM; in the test on NCI/ADR-RES ovarian it was greater than 75.7 µM; with RXF 393 renal, greater than 84.2 µM; in the test with SNB-19 CNS, greater than 100 µM. Besides, the TGI with MDA-MB-435 was 55.7 µM; with RPMI-8226 leukemia, greater than 67.4 µM; in the test on SF-539 CNS, greater than 94.5 µM; with UACC-62 melanoma, greater than 100 µM.

The values above are taken from PubChem BioAssay (NCI).
